Values of other authors as cited in US20180256556A1, “METHODS FOR TREATING AN IMPAIRMENT IN GAIT AND/OR BALANCE IN PATIENTS WITH MULTIPLE SCLEROSIS USING AN AMINOPYRIDINE” (Acorda Therapeutics, Inc., priority 2012, published 2018).

Key:
potassium channels = conditions: high concentration (millimolar)
[1] = system: patients with multiple sclerosis; conditions: p<0.05

## Nc1ccncc1 [4-AP, 4-aminopyridine]
Potassium channels
  Potassium channel blocking activity: broad-spectrum blocker of potassium channels
[1]
  Leg strength (LEMMT) relative to placebo: statistically significantly improved
